The values that follow come from patent US8399462B2, “JNK modulators” (Roche Palo Alto LLC, priority 2006, dated 2013).

The target in data set [1] is Human JNK2α2 (Homo sapiens, UniProt P45984). The data set can be described thus: JNK assay in vitro (phosphorylation of GST-ATF2 with [γ-33P]ATP), JNK2. The class given is biochemical. The method, then: (§1) JNK activity was measured by phosphorylation of GST-ATF2 (19-96) with [γ-^33P] ATP. […] Human JNK2α2 assay contains 1 nM enzyme, 1 μM ATF2, 8 μM ATP with 1 μCi [γ-^33P] ATP. Human JNK1α1 assay contains 2 nM enzyme, 1 μM ATF2, 6 μM ATP with 1 μCi [γ-^33P] ATP. Human JNK3 (Upstate Biotech #14-501M) assay contains 2 nM enzyme, 1 μM ATF2, 4 μM ATP with 1 μCi [γ-33P] ATP. The enzyme assay was carried out in the presence or absence of several compound concentrations. JNK and compound were pre-incubated for 10 min., followed by initiation of the enzymatic reaction by adding ATP and the substrate. The reaction mixture was incubated at 30° C. for 30 min. At the end of incubation, the reaction was terminated by transferring 25 μl of the reaction mixture to 150 μl of 10% glutathione Sepharose® slurry (Amersham # 27-4574-01) containing 135 mM EDTA. The reaction product was captured on the affinity resin, and washed on a filtration plate (Millipore, MABVNOB50) with phosphate buffered saline for six times to remove free radionucleotide. The incorporation of ^33P into ATF2 was quantified on a microplate scintillation counter (Packard Topcount). Compound inhibition potency on JNK was measured by IC50 value generated from ten concentration inhibition curves fitted into the 3-parameter model: % inhibition=Maximum/(I+(IC50/[Inhibitor])^slope). Data were analyzed on Microsoft Excel for parameter estimation.

Data set [2] deals with Human JNK1α1 (Homo sapiens, UniProt P45983). The data set can be described thus: JNK assay in vitro (phosphorylation of GST-ATF2 with [γ-33P]ATP), JNK1. Format: biochemical. The method, then:
as §1

The subject of data set [3] is inflammatory cell infiltration into BAL. The data set is described as follows: Ovalbumin-sensitized asthma model (inflammatory cell infiltration into BAL). The class given is in vivo, rat. How it is done: (A) Male Brown-Norway rats are sensitized i.p. with 100 μg of OA (ovalbumin) in 0.2 ml alum once every week for three weeks (day 0, 7, and 14). The week following the last sensitization, the rats are ready for testing. One to 2 days prior to challenge, animals are weighed. On day 21, the rats are dosed q.d. with either vehicle or compound formulation subcutaneously 30 minutes before OA aerosol challenge (1% OA for 45 minutes) and terminated 4 or 24 hours after challenge. At time of sacrifice, rats are anesthetized (urethane, approx. 2 g/kg, i.p.). Plasma is collected from rats for PK at termination. Blood is drawn from the abdominal aorta at termination. A tracheal cannula is inserted and the lungs are lavaged with 3×3 ml PBS. The BAL fluid is analyzed for total leukocyte number and differential leukocyte counts. Total leukocyte number in an aliquot of the cells (20-100 μl) is determined using a Coulter Counter. For differential leukocyte counts, 50-200 μl of the sample is centrifuged in a Cytospin and the slide stained with Diff-Quik. The proportions of monocytes, eosinophils, neutrophils and lymphocytes are counted under light microscopy using standard morphological criteria and expressed as a percentage. The remaining BAL fluid is centrifuged (1500 rpm, 10 min) and the supernatant is stored at −80° C. Lungs are also harvested for protein and/or RNA analyses.

For data set [4], the system named is TNFα-induced IL-6 production. The data set is described as follows: Rat in vivo TNFα-induced IL-6 production assay. The note with it: 1.5 h, oral gavage, 30 min before TNF-α i.p., blood 90 min after challenge. How it is done: Female Wistar-Han rats procured from Charles River Laboratories were allowed to acclimate for one week prior to use and achieve an approximate body weight of 95-130 g. Rats were administered test compound via oral gavage 30 min prior to an intraperitoneal challenge of 0.5 μg recombinant rat TNF-α (Biosource). Blood was collected via cardiocentesis 90 min after TNF-α challenge. Plasma was prepared using lithium heparin separation tubes (BD microtainer) and frozen at −80° C. until analyzed. IL-6 levels were determined using a rat specific IL-6 ELISA kit (Biosource).

Data set [5] has as its system c-jun. The data set is described as follows: c-jun of Table 2 (method not described). Format: cell-based.
For data set [6], the system named is inflammatory cell infiltration into BAL. The data set can be described thus: Ovalbumin-sensitized asthma model (inflammatory cell infiltration into BAL). Format: in vivo, rat. Conditions: 30 mg/kg.

The structures appear in SMILES notation. pIC50: −log10 of the molar value. Read-outs that look alike come from different tables or passages of the source.

Human JNK2α2, sequence (P45984 whole entry): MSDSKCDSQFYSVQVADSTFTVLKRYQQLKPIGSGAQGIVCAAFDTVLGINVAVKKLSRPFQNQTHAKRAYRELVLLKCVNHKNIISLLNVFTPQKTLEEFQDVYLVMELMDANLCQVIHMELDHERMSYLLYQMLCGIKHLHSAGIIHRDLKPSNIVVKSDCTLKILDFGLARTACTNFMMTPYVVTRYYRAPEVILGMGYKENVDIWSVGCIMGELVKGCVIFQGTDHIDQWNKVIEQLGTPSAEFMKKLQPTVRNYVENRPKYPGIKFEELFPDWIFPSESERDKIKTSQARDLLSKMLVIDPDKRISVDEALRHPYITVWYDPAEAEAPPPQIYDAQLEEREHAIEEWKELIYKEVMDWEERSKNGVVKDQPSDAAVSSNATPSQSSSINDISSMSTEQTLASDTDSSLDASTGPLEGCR
Human JNK1α1, sequence (P45983 1-384 isoform P45983-2): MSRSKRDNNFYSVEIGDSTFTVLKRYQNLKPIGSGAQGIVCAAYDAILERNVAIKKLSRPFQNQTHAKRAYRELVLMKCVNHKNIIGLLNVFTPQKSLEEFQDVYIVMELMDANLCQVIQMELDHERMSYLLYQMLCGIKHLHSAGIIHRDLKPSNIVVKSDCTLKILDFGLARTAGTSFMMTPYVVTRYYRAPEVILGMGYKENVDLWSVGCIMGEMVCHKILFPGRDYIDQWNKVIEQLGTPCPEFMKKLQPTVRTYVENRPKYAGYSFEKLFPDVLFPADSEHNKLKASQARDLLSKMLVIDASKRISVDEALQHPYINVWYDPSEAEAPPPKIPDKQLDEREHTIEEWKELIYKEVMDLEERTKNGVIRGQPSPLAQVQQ

For orientation: pIC50 means the negative decadic logarithm of the IC50, by convention in mol/L. For orientation: melting point means the temperature, or range, at which the solid turns liquid. In the case of `CC(C)C(=O)Nc1cccc2c1ccn2-c1ccnc(N[C@H]2CC[C@H](O)CC2)n1` [Compound 88, N-(1-[2-(4-hydroxy-cyclohexylamino)-pyrimidin-4-yl]-1H-indol-4-yl)-isobutyr-amide], the melting point was 211.8 to 212.6 °C. In data set [1], this molecule had a pIC50 of 6.32. The molecule also had a negative logarithm of the IC50 (pIC50) in data set [2] of 7.15.
In the case of `C[C@@H]1C[C@H]2[C@@H]3CCC4=CC(=O)C=C[C@]4(C)[C@@]3(F)[C@@H](O)C[C@]2(C)[C@@]1(O)C(=O)CO` [Dexamethasone, dexamethasone, reference compound], in data set [3] (10 mg/kg), the Eosinophils % inhibition turned out to be 41.9%, the “Eosinophils count in BAL” value is listed as 0.18 ± 0.11 × 10^5 per mL, the Neutrophils % inhibition was determined as 97.5% and the “Neutrophils count in BAL” value is given as 0.04 ± 0.01 × 10^5 per mL. In addition, the “Total cells % inhibition” value in data set [3] (10 mg/kg) is recorded as 23.2%.
By inhibition in vivo is commonly meant how much of the control response was suppressed. A low value points to a response near the control. As for `O=C(NCC(O)CO)[C@H]1CC[C@H](Nc2nccc(-n3ncc4ccccc43)n2)CC1` (stereo partly shown) [Compound 16], the figures for the pIC50 in data set [1], in data set [5] and in data set [2] were 6.23, 5.38 and 7.15, respectively. In data set [4], this molecule came in with an inhibition in vivo at 30 mg/kg of 47.4%.
`CS(=O)(=O)CCCOc1cccc2c1cnn2-c1ccnc(N[C@H]2CC[C@H](NC(=O)CN3CCOCC3)CC2)n1` [Compound 159, N-(4-{4-[4-(3-methane-sulfonyl-propoxy)-indazol-1-yl]-pyrimidin-2-ylamino}-cyclohexyl)-2-morpholin-4-yl-acetamide] displayed a melting point of 219.2 to 221.1 °C. This molecule also returned an inhibition in vivo at 10 mg/kg in data set [4] of 57.6%.
In the case of `CC(C)(O)c1cccc2c1ccn2-c1ccnc(N[C@H]2CC[C@H](O)CC2)n1` [Compound 18, 4-[4-(4-(2-hydroxyprop-2-yl)-indol-1-yl)-pyrimidin-2-ylamino]-cyclohexanol], the values for the pIC50 in data set [1], in data set [5] and in data set [2] were 6.47, 5.71 and 7.13, respectively.
For `CC(C)(O)[C@H]1CC[C@H](Nc2nccc(-n3ncc4c(OCCCS(C)(=O)=O)cccc43)n2)CC1` [Compound 157, 2-(4-{4-[4-(3-methane-sulfonyl-propoxy)-indazol-1-yl]-pyrimidin-2-ylamino}-cyclohexyl)-propan-2-ol], in data set [6], the Eosinophils % inhibition worked out at 22.6%, the “Eosinophils count in BAL” value is 0.24 ± 0.05 × 10^5 per mL, the Neutrophils % inhibition is 70.6% and the “Neutrophils count in BAL” value was 0.47 ± 0.12 × 10^5 per mL. In addition, the “Total cells count in BAL” value in data set [6] was 2.46 ± 0.18 × 10^5 per mL. In data set [3] (10 mg/kg), the Eosinophils % inhibition was 6.5%, the “Eosinophils count in BAL” value is given as 0.29 ± 0.09 × 10^5 per mL, the Neutrophils % inhibition came to 41.3% and the “Neutrophils count in BAL” value is given as 0.94 ± 0.10 × 10^5 per mL. In data set [3] (10 mg/kg), the “Total cells % inhibition” value stood at 3.3% and the “Total cells count in BAL” value is 2.67 ± 0.13 × 10^5 per mL. Further, the “Total cells % inhibition” value in data set [3] (30 mg/kg) was 10.9%. This molecule returned an inhibition in vivo at 10 mg/kg in data set [4] of 52.5%.
For the molecule `N#CCOc1cccc2c1cnn2-c1ccnc(N[C@H]2CC[C@H](O)CC2)n1` [Compound 87, (1-[2-(4-hydroxycyclo-hexylamino)-pyrimidin-4-yl]-1H-indazol-4-yl-oxy)acetonitrile], the pIC50 in data set [1] was 6.72; in data set [5] it was 5.77; in data set [2] it was 7.53. Also, in data set [4], the inhibition in vivo at 10 mg/kg stood at 64%.
On to `CS(=O)(=O)CCCOc1cccc2c1ccn2-c1ccnc(N[C@H]2CC[C@H](C(=O)N3CCC(N)CC3)CC2)n1.Cl` [Compound 233, (4-amino-piperidin-1-yl)-(4-{4-[4-(3-methane-sulfonyl-propoxy)-indol-1-yl]-pyrimidin-2-ylamino}-cyclohexyl)-methanone], for which the melting point is 247 to 248 °C. This molecule displayed an inhibition in vivo at 20 mg/kg in data set [4] of 57.8%.
With `COc1cccc2c1cnn2-c1ccnc(N[C@H]2CC[C@H](O)CC2)n1` [Compound 86, 4-[4-(4-methoxyindazol-1-yl)-pyrimidin-2-yl-amino]-cyclohexanol], the negative-log IC50 (pIC50) is 6.75 in data set [1] (Km concentrations of ATP and substrate, 8 μM ATP, 1 μM ATF2); 7.64 in data set [2] (Km concentrations of ATP and substrate, 6 μM ATP, 1 μM ATF2).
In data set [4], `CS(=O)(=O)CCCOc1cccc2c1ccn2-c1ccnc(N[C@H]2CC[C@H](C(=O)N3CC[C@@H](O)C3)CC2)n1` [Compound 225, (3-hydroxy-pyrrolidin-1-yl)-(4-{4-[4-(3-methane-sulfonyl-propoxy)-indol-1-yl]-pyrimidin-2-ylamino}-cyclohexyl)-methanone] yielded an inhibition in vivo at 20 mg/kg of 50.9%.
In the case of `O=C(NC(CO)CO)[C@H]1CC[C@H](Nc2nccc(-n3ncc4ccccc43)n2)CC1` [Compound 26, 4-(4-indazol-1-yl-pyrimidin-2-ylamino)-cyclohexane carboxylic acid 1,3-dihydroxyprop-2-ylamide], the pIC50 in data set [1] was 6.16; in data set [5] it was 5.72; in data set [2] it was 7.07. This molecule gave an inhibition in vivo at 30 mg/kg in data set [4] of 59.6%.
On to `CCC(CO)NC(=O)[C@H]1CC[C@H](Nc2nccc(-n3ncc4ccccc43)n2)CC1` (stereo partly shown) [Compound 15], for which the pIC50 is 6.34 in data set [1], 5.89 in data set [5] and 7.17 in data set [2].
For the molecule `CS(=O)(=O)CCCOc1cccc2c1ccn2-c1ccnc(N[C@H]2CC[C@H](C(=O)N3CC[C@H](O)C3)CC2)n1` [Compound 224, (3-hydroxy-pyrrolidin-1-yl)-(4-{4-[4-(3-methane-sulfonyl-propoxy)-indol-1-yl]-pyrimidin-2-ylamino}-cyclohexyl)-methanone], in data set [4], the inhibition in vivo at 20 mg/kg came to 68.6%.
`CC(C)(O)[C@H]1CC[C@H](Nc2nccc(-n3ccc4c(OCCCS(C)(=O)=O)cccc43)n2)CC1` [Compound 166, 2-(4-{4-[4-(3-methanesulfonyl-propoxy)-indol-1-yl]-pyrimidin-2-ylamino}-cyclohexyl)-propan-2-ol]: in data set [4], at 10 mg/kg the inhibition in vivo was 48.5% and 20 mg/kg produced 75.2% inhibition in vivo.
